Assay results taken from ChEMBL document CHEMBL1133851, “Novel spermine-amino acid conjugates and basic tripeptides enhance cleavage of the hairpin ribozyme at low magnesium ion concentration” (Bioorg Med Chem Lett, 2001).
Where a SMILES comes first, the peptide text is derived from it. [ ]: non-standard residue; d: D form. ξ: configuration not given here. Dab = NCC[C@H](N)C(=O)O; Dap = NC[C@H](N)C(=O)O; ξDab = NCCC(N)C(=O)O; ξDap = NCC(N)C(=O)O

Key:
Hairpin ribozyme RNA [1] = tested on: Hairpin ribozyme RNA
Description: Cleavage rate against hairpin ribozyme at 2 mM, in presence of 0.5 uM magnesium ions

Hairpin ribozyme RNA [2] = tested on: Hairpin ribozyme RNA; remark: listed apart in the source
Description: Cleavage rate against hairpin ribozyme at 5 mM with 0.5 uM magnesium ions

| SMILES | K obs (Hairpin ribozyme RNA [1]) | K obs (Hairpin ribozyme RNA [2]) |
| --- | --- | --- |
| NCCC(NC(=O)[C@@H](N)CCN)C(=O)O (some centres not stated) (H-[Dab]-[ξDab]-OH) | 0.021 | – |
| N[C@@H](Cc1c[nH]cn1)C(=O)O | 0.037 | 0.013 |
| NCCCC[C@@H](N)C(=O)O | 0.004 | 0.026 |
| NCC(=O)O | 0.017 | 0.03 |
| NC[C@H](N)C(=O)O | 0.061 | 0.045 |
| NCCCC[C@H](N)C(=O)O | 0.016 | 0.013 |
| NCC(NC(=O)[C@@H](N)CN)C(=O)O (some centres not stated) (H-[Dap]-[ξDap]-OH) | 0.024 | – |
| NCCC(NC(=O)[C@@H](N)CN)C(=O)O (some centres not stated) (H-[Dap]-[ξDab]-OH) | 0.026 | – |
| NC[C@@H](N)C(=O)O | 0.02 | 0.022 |
| NCC[C@@H](N)C(=O)O | 0.023 | 0.027 |
| N=C(N)NCCC[C@H](N)C(=O)O | 0.016 | 0.034 |
| NCCCNCCCCNCCCN | 0.073 | 0.065 |
| N[C@H](Cc1c[nH]cn1)C(=O)O | 0.0085 | 0.026 |
| NCCC[C@@H](N)C(=O)O | 0.0086 | 0.034 |
| NCC[C@H](N)C(=O)O | 0.085 | 0.08 |
| NCCCC(=O)O | 0.0088 | 0.023 |
| NCCC(=O)O | 0.018 | 0.03 |
| NCC[C@H](N)C(=O)NC(CN)C(=O)O (some centres not stated) (H-[Dab]-[ξDap]-OH) | 0.02 | – |
